Data reported in ChEMBL document CHEMBL3046356, “Synthesis and anticholinesterase activity of fumaramide derivatives” (Med Chem Res, 2013).
Active and inactive are the calls of the source. No cut-off for these calls is given here.

Legend:
Acetylcholinesterase = Acetylcholinesterase (Electrophorus electricus, UniProt O42275); assay: Inhibition of Electrophorus electricus (electric eel) AChE using acetylthiocholine iodide as substrate preincubated with enzyme for 15 min prior to substrate addition measured every 45 s by colorimetric Ellman's method
Chain of Acetylcholinesterase (O42275 whole entry): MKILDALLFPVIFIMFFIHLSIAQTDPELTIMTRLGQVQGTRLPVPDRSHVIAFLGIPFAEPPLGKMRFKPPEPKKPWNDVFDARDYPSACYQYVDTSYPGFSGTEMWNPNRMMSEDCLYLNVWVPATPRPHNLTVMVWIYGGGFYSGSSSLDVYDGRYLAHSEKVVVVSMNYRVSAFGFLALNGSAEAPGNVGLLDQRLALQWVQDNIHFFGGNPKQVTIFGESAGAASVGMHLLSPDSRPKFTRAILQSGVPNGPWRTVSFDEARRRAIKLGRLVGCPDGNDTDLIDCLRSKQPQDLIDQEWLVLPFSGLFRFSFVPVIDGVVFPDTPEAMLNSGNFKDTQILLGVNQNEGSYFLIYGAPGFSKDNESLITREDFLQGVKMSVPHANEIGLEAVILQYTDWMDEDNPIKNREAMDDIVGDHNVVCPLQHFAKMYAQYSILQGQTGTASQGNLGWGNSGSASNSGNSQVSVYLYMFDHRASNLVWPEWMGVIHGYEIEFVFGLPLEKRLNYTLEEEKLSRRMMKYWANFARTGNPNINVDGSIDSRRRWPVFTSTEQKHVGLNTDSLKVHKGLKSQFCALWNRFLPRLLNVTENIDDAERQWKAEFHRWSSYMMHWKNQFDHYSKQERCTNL

[1] = biological target: Acetylcholinesterase (Electrophorus electricus) (UniProt O42275); assay: Inhibition of Electrophorus electricus (electric eel) AChE using acetylthiocholine iodide as substrate at 10 mg/ml by TLC-B assay
Chain of Acetylcholinesterase (Electrophorus electricus) (O42275 24-633 limits assumed): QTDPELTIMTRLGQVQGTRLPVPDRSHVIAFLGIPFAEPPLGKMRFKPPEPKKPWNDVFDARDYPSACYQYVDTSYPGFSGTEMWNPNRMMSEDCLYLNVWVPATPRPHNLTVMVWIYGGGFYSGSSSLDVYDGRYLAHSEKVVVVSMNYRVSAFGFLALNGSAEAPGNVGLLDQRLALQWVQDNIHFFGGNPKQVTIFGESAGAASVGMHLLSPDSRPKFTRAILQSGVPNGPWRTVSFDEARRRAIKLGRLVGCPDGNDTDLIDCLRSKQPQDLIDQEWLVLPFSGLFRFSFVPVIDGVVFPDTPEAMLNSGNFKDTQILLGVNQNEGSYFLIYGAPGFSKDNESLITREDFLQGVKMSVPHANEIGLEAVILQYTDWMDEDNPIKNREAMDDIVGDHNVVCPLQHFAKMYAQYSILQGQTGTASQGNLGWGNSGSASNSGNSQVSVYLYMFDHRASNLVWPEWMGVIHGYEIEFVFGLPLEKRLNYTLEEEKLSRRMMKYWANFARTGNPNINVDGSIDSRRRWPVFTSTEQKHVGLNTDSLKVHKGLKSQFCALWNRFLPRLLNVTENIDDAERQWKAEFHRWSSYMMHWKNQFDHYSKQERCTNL

Cholinesterase = Cholinesterase (Equus caballus, UniProt P81908); assay: Inhibition of BCHE in Equus caballus (horse) serum using butyrylthiocholine iodide as substrate preincubated with enzyme for 15 min prior to substrate addition measured every 45 s by colorimetric Ellman's method
Chain of Cholinesterase (P81908 whole entry): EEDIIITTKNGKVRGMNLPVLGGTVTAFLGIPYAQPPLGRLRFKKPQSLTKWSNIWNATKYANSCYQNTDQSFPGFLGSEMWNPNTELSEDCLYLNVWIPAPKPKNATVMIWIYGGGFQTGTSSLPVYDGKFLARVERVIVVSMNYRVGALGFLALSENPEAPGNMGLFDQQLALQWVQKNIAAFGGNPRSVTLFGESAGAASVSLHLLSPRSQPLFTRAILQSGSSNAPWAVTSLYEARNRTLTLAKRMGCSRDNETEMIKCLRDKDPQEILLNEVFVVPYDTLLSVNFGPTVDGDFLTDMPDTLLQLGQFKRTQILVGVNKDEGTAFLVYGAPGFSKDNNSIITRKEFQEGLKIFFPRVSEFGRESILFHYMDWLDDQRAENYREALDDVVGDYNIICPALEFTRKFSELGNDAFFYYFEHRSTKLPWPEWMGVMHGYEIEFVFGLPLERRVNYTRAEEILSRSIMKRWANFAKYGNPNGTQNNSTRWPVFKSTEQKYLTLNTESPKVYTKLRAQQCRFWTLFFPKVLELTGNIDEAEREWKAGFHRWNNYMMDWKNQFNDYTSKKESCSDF

[2] = biological target: Cholinesterase (Equus caballus) (UniProt P81908); assay: Non-competitive inhibition of BCHE in Equus caballus (horse) serum assessed as decrease in Vmax with unchanged Km using butyrylthiocholine iodide as substrate by Lineweaver-burk plot analysis
Chain of Cholinesterase (Equus caballus) (P81908 whole entry): as above

[3] = biological target: Acetylcholinesterase (Electrophorus electricus) (UniProt O42275); assay: Non-competitive inhibition of Electrophorus electricus (electric eel) AChE assessed as decrease in Vmax with unchanged Km using acetylthiocholine iodide as substrate by Lineweaver-burk plot analysis

SMILES: CCc1ccc(NCc2ccccc2)cc1
- IC50 (Acetylcholinesterase): > 100 µM
- inhibition [1]: Active
- IC50 (Cholinesterase): > 100 µM

SMILES: Cc1ccc(NCc2ccccc2)cc1 [N-BENZYL-4-METHYLANILINE]
- IC50 (Acetylcholinesterase): > 100 µM
- inhibition [1]: Active
- IC50 (Cholinesterase): > 100 µM

SMILES: Fc1ccc(NCc2ccccc2)cc1
- IC50 (Acetylcholinesterase): > 100 µM
- inhibition [1]: Active
- IC50 (Cholinesterase): > 100 µM

SMILES: COc1ccc(N(Cc2ccc(C)cc2)C(=O)/C=C/C(=O)N(Cc2ccc(C)cc2)c2ccc(OC)cc2)cc1
- IC50 (Acetylcholinesterase): 11.2 µM
- inhibition [1]: Active
- IC50 (Cholinesterase): 41 µM

SMILES: Cc1ccc(CN(C(=O)/C=C/C(=O)N(Cc2ccc(C)cc2)c2ccc(C)cc2)c2ccc(C)cc2)cc1
- IC50 (Acetylcholinesterase): 43.1 µM
- inhibition [1]: Active
- IC50 (Cholinesterase): 54.8 µM

SMILES: Cc1ccc(CNc2ccc(Cl)cc2)cc1
- IC50 (Acetylcholinesterase): > 100 µM
- inhibition [1]: Active
- IC50 (Cholinesterase): > 100 µM

SMILES: CCc1ccc(N(Cc2ccccc2)C(=O)/C=C/C(=O)N(Cc2ccccc2)c2ccc(CC)cc2)cc1
- IC50 (Acetylcholinesterase): 32.2 µM
- inhibition [1]: Active
- IC50 (Cholinesterase): 49.3 µM

SMILES: Brc1ccc(NCc2ccccc2)cc1
- IC50 (Acetylcholinesterase): > 100 µM
- inhibition [1]: Active
- IC50 (Cholinesterase): > 100 µM

SMILES: Cc1ccc(CN(C(=O)/C=C/C(=O)N(Cc2ccc(C)cc2)c2ccc(F)cc2)c2ccc(F)cc2)cc1
- IC50 (Acetylcholinesterase): 23.9 µM
- inhibition [1]: Active
- IC50 (Cholinesterase): 56.6 µM

SMILES: Cc1ccc(CN(C(=O)/C=C/C(=O)N(Cc2ccc(C)cc2)c2ccc(Br)cc2)c2ccc(Br)cc2)cc1
- inhibition [2]: Active
- IC50 (Acetylcholinesterase): 0.14 µM
- inhibition [3]: Active
- inhibition [1]: Active
- IC50 (Cholinesterase): 23.1 µM

SMILES: O=C(/C=C/C(=O)N(Cc1ccccc1)c1ccc(F)cc1)N(Cc1ccccc1)c1ccc(F)cc1
- IC50 (Acetylcholinesterase): 4.5 µM
- inhibition [1]: Active
- IC50 (Cholinesterase): 89.5 µM

SMILES: CCOc1ccc(N(Cc2ccccc2)C(=O)/C=C/C(=O)N(Cc2ccccc2)c2ccc(OCC)cc2)cc1
- IC50 (Acetylcholinesterase): 35.9 µM
- inhibition [1]: Active
- IC50 (Cholinesterase): 44 µM

SMILES: CCOc1ccc(NCc2ccc(C)cc2)cc1
- IC50 (Acetylcholinesterase): > 100 µM
- inhibition [1]: Active
- IC50 (Cholinesterase): 4.07 µM

SMILES: Ic1ccc(NCc2ccccc2)cc1
- IC50 (Acetylcholinesterase): > 100 µM
- inhibition [1]: Active
- IC50 (Cholinesterase): > 100 µM

SMILES: CCOc1ccc(NCc2ccccc2)cc1
- IC50 (Acetylcholinesterase): > 100 µM
- inhibition [1]: Active
- IC50 (Cholinesterase): > 100 µM

SMILES: Cc1ccc(N(Cc2ccccc2)C(=O)/C=C/C(=O)N(Cc2ccccc2)c2ccc(C)cc2)cc1
- IC50 (Acetylcholinesterase): 12.5 µM
- inhibition [1]: Active
- IC50 (Cholinesterase): 26.3 µM

SMILES: Cc1ccc(CNc2ccc(Br)cc2)cc1
- IC50 (Acetylcholinesterase): > 100 µM
- inhibition [1]: Active
- IC50 (Cholinesterase): > 100 µM

SMILES: c1ccc(CNc2ccccc2)cc1 [N-BENZYLANILINE]
- IC50 (Acetylcholinesterase): 13 µM
- inhibition [1]: Active
- IC50 (Cholinesterase): > 100 µM

SMILES: Cc1ccc(CNc2ccc(I)cc2)cc1
- IC50 (Acetylcholinesterase): > 100 µM
- inhibition [1]: Active
- IC50 (Cholinesterase): > 100 µM

SMILES: CCOc1ccc(N(Cc2ccc(C)cc2)C(=O)/C=C/C(=O)N(Cc2ccc(C)cc2)c2ccc(OCC)cc2)cc1
- IC50 (Acetylcholinesterase): 2.23 µM
- inhibition [1]: Active
- IC50 (Cholinesterase): > 100 µM

SMILES: O=C(/C=C/C(=O)N(Cc1ccccc1)c1ccc(I)cc1)N(Cc1ccccc1)c1ccc(I)cc1
- IC50 (Acetylcholinesterase): 0.97 µM
- inhibition [1]: Active
- IC50 (Cholinesterase): 23.3 µM

SMILES: Cc1ccc(CNc2ccc(F)cc2)cc1
- IC50 (Acetylcholinesterase): > 100 µM
- inhibition [1]: Active
- IC50 (Cholinesterase): > 100 µM

SMILES: CCc1ccc(NCc2ccc(C)cc2)cc1
- IC50 (Acetylcholinesterase): > 100 µM
- inhibition [1]: Active
- IC50 (Cholinesterase): > 100 µM

SMILES: O=C(/C=C/C(=O)N(Cc1ccccc1)c1ccccc1)N(Cc1ccccc1)c1ccccc1
- IC50 (Acetylcholinesterase): 11.8 µM
- inhibition [1]: Active
- IC50 (Cholinesterase): 52.4 µM

SMILES: Clc1ccc(NCc2ccccc2)cc1
- IC50 (Acetylcholinesterase): > 100 µM
- inhibition [1]: Active
- IC50 (Cholinesterase): > 100 µM

SMILES: CCc1ccc(N(Cc2ccc(C)cc2)C(=O)/C=C/C(=O)N(Cc2ccc(C)cc2)c2ccc(CC)cc2)cc1
- IC50 (Acetylcholinesterase): 29.4 µM
- inhibition [1]: Active
- IC50 (Cholinesterase): 44.7 µM

SMILES: Cc1ccc(CNc2ccc(C)cc2)cc1
- IC50 (Acetylcholinesterase): > 100 µM
- inhibition [1]: Active
- IC50 (Cholinesterase): > 100 µM

SMILES: O=C(/C=C/C(=O)N(Cc1ccccc1)c1ccc(Br)cc1)N(Cc1ccccc1)c1ccc(Br)cc1
- inhibition [2]: Active
- IC50 (Acetylcholinesterase): 8.06 µM
- inhibition [3]: Active
- inhibition [1]: Active
- IC50 (Cholinesterase): 16.5 µM

SMILES: COc1ccc(N(Cc2ccccc2)C(=O)/C=C/C(=O)N(Cc2ccccc2)c2ccc(OC)cc2)cc1
- IC50 (Acetylcholinesterase): 13.9 µM
- inhibition [1]: Active
- IC50 (Cholinesterase): 43.6 µM

SMILES: Cc1ccc(CN(C(=O)/C=C/C(=O)N(Cc2ccc(C)cc2)c2ccc(Cl)cc2)c2ccc(Cl)cc2)cc1
- IC50 (Acetylcholinesterase): 2.42 µM
- inhibition [1]: Active
- IC50 (Cholinesterase): 45.6 µM

SMILES: O=C(/C=C/C(=O)N(Cc1ccccc1)c1ccc(Cl)cc1)N(Cc1ccccc1)c1ccc(Cl)cc1
- IC50 (Acetylcholinesterase): 2.53 µM
- inhibition [1]: Active
- IC50 (Cholinesterase): 57.7 µM

SMILES: COc1ccc(NCc2ccc(C)cc2)cc1
- IC50 (Acetylcholinesterase): 1.33 µM
- inhibition [1]: Active
- IC50 (Cholinesterase): > 100 µM

SMILES: Cc1ccc(CN(C(=O)/C=C/C(=O)N(Cc2ccc(C)cc2)c2ccc(I)cc2)c2ccc(I)cc2)cc1
- IC50 (Acetylcholinesterase): 17.7 µM
- inhibition [1]: Active
- IC50 (Cholinesterase): 24.6 µM
